Measured values: patent US7423015B1, “Antihelminthic drugs as a treatment for hyperproliferative diseases” (Board of Regents, The University of Texas System, priority 2001, dated 2008)

Legend:
H460 NSCLC cells = assay: Cell cycle profiles by FACS, MZ and vinorelbine; type: cell-based, human; settings: sub-therapeutic low dose
Method: FIG. 10. MZ Enhances activity of anti-mictotic drugs in H460 NSCLC cells. H460 cells were treated with low dose of MZ or Vinorelbine. Cell cycle profiles indicating G1/S G2-Mphases were analyzed by FACS.
The doses of MZ and vinorelbine were chosen to be “sub-therapeutic”. […] Thus, in H460 NSCLC cells mebendazole enhances the activity of anti-mitotic drugs.

[1] = tested on: A549 metastatic lung colonies; assay: Lung metastases in vivo after tail vein injection; set-up: species or system female nude mice; settings: paclitaxel alone, other experiments
Method: To establish lung metastases, female nude mice were injected intravenously via tail vein with 10^6 A549 tumor cells suspended in […] of sterile PBS. Six days later, mice were divided into two groups of 5 mice each and treated. Group 1 received no treatment and group 2 received the experimental MZ drug orally at 1 mg of drug (100 μl) twice a week for 3 weeks. After 3 weeks, animals were euthanized by CO2 inhalation. Lungs from each of the mice from the two groups were injected intra-tracheally with India ink and fixed in Feketes solution. The therapeutic effect of MZ treatment was determined by counting the number of metastatic tumors in each lung under a dissecting microscope without knowledge of the treatment groups. The experiments were performed three times and data analyzed and interpreted as statistically significant if the p value was <0.05 by the Mann-Whitney rank-sum test.
Next, the inventors asked whether treatment with MZ would inhibit the growth of human metastatic lung cancer cells in vivo. About 300 metastatic colonies appeared on untreated mice 21 days after A549 cell injection into the tail vein (FIG. 6). This technique was reproducible as the totals blindly counted by two investigators differed by less than 10%. This experiment was performed three times with similar results. The oral administration of […] MZ reduced mean colony count to 80% of the mean value for controls (P<0.0001).

CCC1=C[C@@H]2CN(C1)Cc1c([nH]c3ccccc13)[C@@](C(=O)OC)(c1cc3c(cc1OC)N(C)[C@H]1[C@@](O)(C(=O)OC)[C@H](OC(C)=O)[C@]4(CC)C=CCN5CC[C@]31[C@@H]54)C2 [Vinorelbine]
apoptosis under monotherapy (H460 NSCLC cells): No apoptosis

CC(=O)O[C@H]1C(=O)[C@@]2(C)[C@H]([C@H](OC(=O)c3ccccc3)[C@]3(O)C[C@H](OC(=O)[C@H](O)[C@@H](NC(=O)c4ccccc4)c4ccccc4)C(C)=C1C3(C)C)[C@]1(OC(C)=O)CO[C@@H]1C[C@@H]2O [paclitaxel]
colony formation [1]: no significant reduction
